Structures are written as SMILES.

The values below come from US20170296490A1, “USE OF LIGNIN-DERIVED ALDEHYDES AS ANTIFUNGAL AGENTS” (Wisconsin Alumni Research Foundation, priority 2016, published 2017).

The test system of experiment [1] is S. sclerotiorum. Description: Colony growth inhibition of S. sclerotiorum (FIG. 4). Conditions: for growth of the colony: S. sclerotiorum, 250, 500 and 1,000 μg/mL vs untreated control (DMSO), dose-dependent; for inhibition of Sclerotinia sclerotiorium (summary statement): no concentration stated. The experiment is classed as cell-based, Sclerotinia sclerotiorum. Here is the method: FIG. 4 is a series of photographs illustrating dose-dependent inhibition of Scelerotinia sclerotiorium by sinapyl aldehyde (top row) and coniferyl aldehyde (bottom row) at concentrations of 250 μg/mL, 500 μg/mL, and 1,000 μg/mL.
FIG. 4 is a series of photographs analogous to FIG. 1, but showing the ability of sinapldehyde and coniferyl aldehyde to attenuate the grown of S. sclerotiorum. […] White mold is particularly significant economically because it affects a wide range of hosts. It is also capable of infecting plants at any stage of growth makes. S. sclerotiorum, can survive on infected tissues, in the soil, and on living plants. It affects young seedlings, mature plants, and fruit in the field or in storage. […] It can also propagate throughout a harvested crop if conditions are not monitored carefully. It infects many extensively planted crops, including soybeans, green beans, sunflowers, canola, and peanuts.

Experiment [2] concerns Alternaria solani. Description: Colony growth inhibition of Alternaria solani (FIG. 1). Particulars: for growth of the colony: A. solani, 250, 500 and 1,000 μg/mL vs untreated control (DMSO), dose-dependent; for inhibition of Alternaria solani (summary statement): no concentration stated. The experiment is classed as cell-based. On the procedure:
FIG. 1 is a series of photographs illustrating dose-dependent inhibition of Alternaria solani by sinapaldehyde (top row) and coniferyl aldehyde (bottom row) at concentrations of 250 μg/mL, 500 μg/mL, and 1,000 μg/mL.
Without aggressive early control of the pathogen, early blight causes significant yield reductions.

For experiment [3], the system named is Candida albicans. Kind of experiment: Growth inhibition of C. albicans (FIG. 6). The experiment is classed as cell-based. Particulars: for inhibitory activity against C. albicans: at a concentration of 1000 μg/mL; for inhibition of Candida albicans (summary statement): no concentration stated. The text has this:
FIG. 6 is a graph depicting dose-dependent inhibition of the yeast C. albicans by sinapyl aldehyde ([…]), coniferyl aldehyde (∘), and p-hydroxycoumaryl aldehyde (▾).
FIG. 6 depicts dose-dependent inhibition of C. albicans by sinapyl aldehyde ([…]), coniferyl aldehyde (∘), and p-hydroxycoumaryl aldehyde (▾). Here, the inhibition was not as pronounced as against S. cerevisiae.

The subject of experiment [4] is Alternaria alternata. Kind of experiment: Colony growth inhibition of Alternaria alternata (FIGS. 2, 3). The experiment is classed as cell-based. Conditions: for inhibition of Alternaria alternata (summary statement): no concentration stated; for colony size: end of six days. Here is the method:
FIG. 2 is a graph depicting dose-dependent inhibition of Alternaria alternata by sinapyl aldehyde. Control=[…]. 250 μg/mL=∘. 500 μg/mL=▾. 1,000 μg/mL=Δ.
FIG. 3 is a graph depicting dose-dependent inhibition of Alternaria alternata by coniferyl aldehyde. Control=[…]. 250 μg/mL=∘. 500 μg/mL=▾. 1,000 μg/mL=Δ.
Similar to FIG. 1, FIG. 2 is a graph depicting dose-dependent inhibition of Alternaria alternata by sinapyl aldehyde. Time in days is on the X-axis; colony size in cm is on the Y-axis. […] A. alternata has also been implicated as a causative agent of asthma in humans. Salo et al. (October 2006) “Exposure to Alternaria alternata in US homes is associated with asthma symptoms” J Allergy Clin Immunol.; 118(4): 892-898.
(Control=[…]. 250 μg/mL=∘. 500 μg/mL=▾. 1,000 μg/mL=Δ.)

Experiment [5] concerns Saccharomyces cerevisiae. Description: Growth inhibition of the yeast S. cerevisiae (FIG. 5). Type of experiment: cell-based. Particulars: for inhibition of S. cerevisiae: at 500 μg/mL; for inhibition of Saccharomyces cerevisiae (summary statement): no concentration stated. From the text:
FIG. 5 is a graph depicting dose-dependent inhibition of the yeast S. cerevisiae by sinapyl aldehyde ([…]), coniferyl aldehyde (∘), and p-hydroxycoumaryl aldehyde (▾).
FIG. 5 depicts dose-dependent inhibition of S. cerevisiae by sinapyl aldehyde ([…]), coniferyl aldehyde (∘), and p-hydroxycoumaryl aldehyde (▾).

As to `COc1cc(/C=C/C=O)ccc1O` [coniferyl aldehyde], in experiment [1], the “growth of the colony” value is listed as “very significantly inhibited” and the “inhibition of Sclerotinia sclerotiorium (summary statement)” value (from here on “inhibition of Sclerotinia sclerotiorium”) is recorded as “show inhibition”. Also, in experiment [2], the “growth of the colony” value is “very significantly inhibited” and the “inhibition of Alternaria solani (summary statement)” value (“inhibition of Alternaria solani” below) was “show inhibition”. Besides, in experiment [3], the “inhibitory activity against C. albicans” value was “very signification inhibitory activity” and the “inhibition of Candida albicans (summary statement)” value (shortened to “inhibition of Candida albicans”) is “show inhibition”. Also, the “growth rates and colony size” value in experiment [4] (A. alternata, 250, 500 and 1,000 μg/mL treatment groups, six days) was “progressively attenuated growth rates and smaller colony size”. In experiment [4], the “inhibition of Alternaria alternata (summary statement)” value (“inhibition of Alternaria alternata” below) is “show inhibition”. In experiment [5], the “inhibition of S. cerevisiae” value is recorded as “very significant inhibition” and the “inhibition of Saccharomyces cerevisiae (summary statement)” value (from here on “inhibition of Saccharomyces cerevisiae”) is on record as “show inhibition”.
Take `O=C/C=C/c1ccc(O)cc1` [p-hydroxycoumaryl aldehyde]: the “inhibition of Sclerotinia sclerotiorium” value in experiment [1] is “show inhibition”. In addition, the “inhibition of Alternaria solani” value in experiment [2] is recorded as “show inhibition”. For the same compound, in experiment [3], the “inhibitory activity against C. albicans” value was “very signification inhibitory activity” and the “inhibition of Candida albicans” value is recorded as “show inhibition”. Moreover, in experiment [4], the “inhibition of Alternaria alternata” value is given as “show inhibition”. Moreover, in experiment [5], the “inhibition of S. cerevisiae” value was “very significant inhibition” and the “inhibition of Saccharomyces cerevisiae” value was “show inhibition”.
On to `COc1cc(/C=C/C=O)cc(OC)c1O` [sinapyl aldehyde], for which, in experiment [1], the “growth of the colony” value is listed as “very significantly inhibited” and the “inhibition of Sclerotinia sclerotiorium” value was “show inhibition”. In experiment [2], the “growth of the colony” value is reported as “very significantly inhibited” and the “inhibition of Alternaria solani” value is “show inhibition”. The “inhibition of Candida albicans” value in experiment [3] is recorded as “show inhibition”. Further, in experiment [4] (A. alternata, 250 μg/mL), the colony size entry is reported as “smaller than the untreated colony”. Also, the colony size entry in experiment [4] (A. alternata, 500 μg/mL) was “smaller still”. Moreover, the colony size result in experiment [4] (A. alternata, 1,000 μg/mL) was “the smallest of those tested”. The “inhibition of Alternaria alternata” value in experiment [4] is “show inhibition”. Further, in experiment [5], the “inhibition of S. cerevisiae” value is “very significant inhibition” and the “inhibition of Saccharomyces cerevisiae” value is “show inhibition”.
